Test results as given in patent publication EP3827825A1, “USE OF 3, 4-DIARYLPYRAZOLES AS ANTIBACTERIAL AGENTS” (Wageningen Universiteit, priority 2019, dated 2021).
Values after ≈ are worked out from the molar mass of the structure shown. Read-outs that look alike come from different tables or passages of the source.

Assays:
[1] = test system: NRK-52E; experiment: Cell toxicity, Alamar blue assay, 24 hours exposure; type: cell-based; conditions: Rattus norvegicus
Protocol: Toxicity was primarily determined by measuring cytotoxicity with the Alamar blue assay. In short, cells (HEK293, NRK-52E and Caco-2) were plated in 96-well plates and cultured overnight. HKI compounds were diluted to concentrations ranging from 0.39 to 500 µg/mL in serum-free medium and added to the cells.
After exposure, cells were incubated for 24 hours. Experiments were mostly performed by single measurement. […] After 24 hours HKIs were removed from the cells and Alamar blue was added, incubated for 45 minutes and fluorescence was measured on a spectrophotometer. Alamar blue measures the conversion of blue, low fluorescent resazurin into high fluorescent pink resorufin. This conversion can only be made in viable mitochondria in viable cells and therefore this dye provides a measure for cytotoxicity.

[2] = test system: P. multocida; experiment: Minimal inhibitory concentration (MIC), double-dilution in broth, OD600; type: cell-based, Pasteurella multocida; conditions: unit assumed
Protocol: (§1) In short, a stock solution of 5 mg/mL of HKIs in DMSO was made. This stock was diluted to 50 µg/mL in broth in a 96 well plate. Dilutions were made (factor 2) directly in the plate with a multi-channel pipet. Bacteria cultured in suspension overnight were then added to the plate (except negative control) and the plate was incubated for 24 hours. After 24 hours the OD600 was measured using a spectrophotometer. A positive control (with bacteria, without HKI) was also measured on each plate. The MICs were not determined in duplo/triplicate in the same experiment, however, the MICs of several HKIs were measured in different experiments and no major differences (max. 1x dilution) were found in the MICs between the experiments.
(§2) Bacterial strains used in this study for antibacterial susceptibility testing (Table S2) were propagated using standard microbiological procedures. Minimal inhibitory concentrations (MICs) were determined following a standard double-dilution method (42), 73. MICs were recorded as the lowest concentration of the compound where no visible growth was observed. After plating the dilutions around the MIC or growing them in fresh MH media, minimal bactericidal concentration (MBC) was recorded as the lowest concentration of the compound at which no colonies were formed or no growth was observed, respectively. For M. marinum, MICs were determined in Middlebrook 7H9 broth (Difco) and MICs were determined after 3 days incubation at 30 °C.
(§3) Grow the bacterial colonies to be tested from single colonies on an agar plate in LB broth or suitable bacterial growth medium overnight at 37°C. Prepare a 5 mg/mL stock solution of compounds to be tested in DMSO. One 96-well plate per bacterial strain was prepared. First, put 50 uL of medium to each well. Add 48 µL of medium to all wells in row A. Pipet 2 µL of antimicrobial master stock into the top well (row A). Beware, the antimicrobial concentration will be diluted 2x after adding the bacterial culture. Total volume in each well will be 100 µL. In A11, pipet 2 µL of DMSO. Make a serial dilution from row A to row H, pipetting 50 µL from the previous row into the new one. Mix well by pipetting up and down. Discard the last 50 µL so that there is 50 µl in each well In a clean, new plastic pipetting cup, dilute the overnight bacterial culture 100 times. Add 100 µL of bacterial overnight culture to 9900 µL of medium. Mix the suspension well. Once the serial dilutions are complete for all antimicrobial compounds, add 50 µL of diluted overnight bacterial culture to each well (except column 12). Mix by pipetting or put the plate on the shaker. Per 2 plates, close with parafilm around the edges and place in the incubator overnight. After overnight culturing, measure bacterial growth on the SpectraMax. The lowest concentration where no growth is observed is the MIC. To determine the MIB pipette 5 µL from each well of the 96 well plate where now growth was observed on to an LB agar plate, without antimicrobial. Put the plates in the incubator to grow overnight. The minimal concentration where no growth can be seen on the agar plate is the MBC.

[3] = test system: S. aureus Newman; experiment: as above; type: cell-based, Staphylococcus aureus Newman; conditions: unit assumed
Protocol: In short, a stock solution of 5 mg/mL of HKIs in DMSO was made. This stock was diluted to 50 µg/mL in broth in a 96 well plate. Dilutions were made (factor 2) directly in the plate with a multi-channel pipet. Bacteria cultured in suspension overnight were then added to the plate (except negative control) and the plate was incubated for 24 hours. After 24 hours the OD600 was measured using a spectrophotometer. A positive control (with bacteria, without HKI) was also measured on each plate.
Bacterial strains used in this study for antibacterial susceptibility testing (Table S2) were propagated using standard microbiological procedures. Minimal inhibitory concentrations (MICs) were determined following a standard double-dilution method (42), 73. […] For M. marinum, MICs were determined in Middlebrook 7H9 broth (Difco) and MICs were determined after 3 days incubation at 30 °C.
as §3

[4] = test system: E. faecium Van A; experiment: as above; type: cell-based, Enterococcus faecium; conditions: unit assumed
Protocol: as §1, §2, §3

[5] = test system: E. coli JW5503; type: cell-based, Escherichia coli; conditions: unit assumed
Protocol: as §1, §2, §3

[6] = test system: S. suis; experiment: Minimal inhibitory concentration (MIC), double-dilution in broth, OD600; type: cell-based, Streptococcus suis; conditions: unit assumed
Protocol: as §1, §2, §3

[7] = test system: M. marinum; experiment: Minimal inhibitory concentration (MIC), Middlebrook 7H9 broth, 3 days at 30 °C; type: cell-based, Mycobacterium marinum; conditions: unit assumed
Protocol: as §1, §2, §3

[8] = read-out: IC50 NRK-52E (50 mg/mL stock)

Structure (SMILES) | IC50 [1, 8] [µg/mL] | MIC P. multocida [2] [µg/mL] | MIC S. aureus Newman [3] [µg/mL] | MIC E. faecium Van A [4] [µg/mL] | MIC E. coli JW5503 [5] [µg/mL] | MIC S. suis [6] [µg/mL] | MIC M. marinum [7] [µg/mL] | IC50 ([1]; read-out: IC50 NRK-52E (50 mg/mL stock), 50 mg/mL stock) [µg/mL]
Cc1[nH]nc(-c2ccc(O)cc2O)c1-c1ccc(Br)cc1 [May-1, 4-[4-(4-bromophenyl)-5-methyl-1∼{H}-pyrazol-3-yl]resorcinol] | 5.95 (≈ 17.2 µM) | 12.5 (≈ 36.2 µM) | 12.5 (≈ 36.2 µM) | 12.5 (≈ 36.2 µM) | 3.13 (≈ 9.07 µM) | 6.25 (≈ 18.1 µM) | 50 (≈ 145 µM) | –
COc1ccc(-c2c(C(F)(F)F)n[nH]c2-c2ccc(O)cc2O)cc1OC [May-2, 4-[4-(3,4-dimethoxyphenyl)-5-(trifluoromethyl)-1∼{H}-pyrazol-3-yl]resorcinol] | 13.9 (≈ 36.6 µM) | > 50 | 50 (≈ 131 µM) | 50 (≈ 131 µM) | – | 50 (≈ 131 µM) | > 50 | –
COc1ccc(-c2[nH]nc(C(F)(F)F)c2-c2ccc(OC)c(OC)c2)c(O)c1 [May-5, 2-[4-(3,4-dimethoxyphenyl)-5-(trifluoromethyl)-1∼{H}-pyrazol-3-yl]-5-methoxy-phenol] | 6.11 (≈ 15.5 µM) | > 50 | 25 (≈ 63.4 µM) | – | – | 50 (≈ 127 µM) | > 50 | –
COc1ccc(-c2c(-c3ccc(OC)cc3O)n[nH]c2C(F)(F)F)cc1 [May-8] | 2.64 (≈ 7.25 µM) | > 50 | 12.5 (≈ 34.3 µM) | – | 3.13 (≈ 8.59 µM) | 12.5 (≈ 34.3 µM) | 50 (≈ 137 µM) | –
COc1ccc(-c2c(-c3ccc(O)cc3O)n[nH]c2C(F)(F)F)cc1 [May-9, 4-[4-(4-methoxyphenyl)-5-(trifluoromethyl)-1∼{H}-pyrazol-3-yl]resorcinol] | ~3.15 (≈ 8.99 µM) | 50 (≈ 143 µM) | 12.5 (≈ 35.7 µM) | 25 (≈ 71.4 µM) | 3.13 (≈ 8.94 µM) | 12.5 (≈ 35.7 µM) | > 50 | –
Oc1ccc(-c2[nH]nc(C(F)(F)F)c2-c2ccccc2)c(O)c1 [May-10, 4-[4-phenyl-5-(trifluoromethyl)-1∼{H}-pyrazol-3-yl]resorcinol] | ~3.61 (≈ 11.3 µM) | 25 (≈ 78.1 µM) | 6.25 (≈ 19.5 µM) | 12.5 (≈ 39 µM) | – | 12.5 (≈ 39 µM) | 50 (≈ 156 µM) | –
COc1ccccc1-c1c(-c2ccc(O)cc2O)n[nH]c1C(F)(F)F [May-13, 4-[4-(2-methoxyphenyl)-5-(trifluoromethyl)-1∼{H}-pyrazol-3-yl]resorcinol] | 8.06 (≈ 23 µM) | 50 (≈ 143 µM) | 25 (≈ 71.4 µM) | 50 (≈ 143 µM) | – | 25 (≈ 71.4 µM) | > 50 | –
COc1ccc(-c2c(-c3ccc(OC)c(C)c3O)n[nH]c2C(F)(F)F)cc1 [Sep-1, 3-methoxy-6-[4-(4-methoxyphenyl)-5-(trifluoromethyl)-1∼{H}-pyrazol-3-yl]-2-methyl-phenol] | 23.2 (≈ 61.3 µM) | > 50 | 25 (≈ 66.1 µM) | 50 (≈ 132 µM) | 6.25 (≈ 16.5 µM) | 50 (≈ 132 µM) | > 50 | –
CCOc1ccc(-c2n[nH]c(C(F)(F)F)c2-c2ccccc2)c(O)c1C [Sep-3, 3-ethoxy-2-methyl-6-[4-phenyl-5-(trifluoromethyl)-1∼{H}-pyrazol-3-yl]phenol] | ~15.5 (≈ 42.8 µM) | > 50 | 12.5 (≈ 34.5 µM) | 25 (≈ 69 µM) | 6.25 (≈ 17.2 µM) | 25 (≈ 69 µM) | > 50 | –
Cc1ccc(COc2ccc(-c3n[nH]c(C(F)(F)F)c3-c3cccc4ccccc34)c(O)c2)cc1 [Sep-4, 5-(4-methylbenzyl)oxy-2-[4-(1-naphthyl)-5-(trifluoromethyl)-1∼{H}-pyrazol-3-yl]phenol] | 13.9 (≈ 29.2 µM) | > 50 | 3.13 (≈ 6.6 µM) | 25 (≈ 52.7 µM) | > 50 | 25 (≈ 52.7 µM) | 50 (≈ 105 µM) | –
CCCCCOc1ccc(-c2n[nH]c(C(F)(F)F)c2-c2ccccc2Cl)c(O)c1 [Sep-5, 2-[4-(2-chlorophenyl)-5-(trifluoromethyl)-1∼{H}-pyrazol-3-yl]-5-pentoxyphenol] | ~7.46 (≈ 17.6 µM) | > 50 | 3.13 (≈ 7.37 µM) | 12.5 (≈ 29.4 µM) | > 50 | 12.5 (≈ 29.4 µM) | 50 (≈ 118 µM) | –
COc1ccc(-c2c(C(F)(F)F)n[nH]c2-c2ccc(OCc3ccc([N+](=O)[O-])cc3)cc2O)cc1 [Sep-6, 2-[4-(4-methoxyphenyl)-5-(trifluoromethyl)-1∼{H}-pyrazol-3-yl]-5-(4-nitrobenzyl)oxyphenol] | 8.42 (≈ 17.3 µM) | > 50 | 3.13 (≈ 6.45 µM) | 6.25 (≈ 12.9 µM) | 12.5 (≈ 25.8 µM) | 12.5 (≈ 25.8 µM) | 50 (≈ 103 µM) | –
COc1ccc(-c2n[nH]c(C)c2-c2ccc(Cl)cc2)c(O)c1 [Sep-21, 2-[4-(4-chlorophenyl)-5-methyl-1∼{H}-pyrazol-3-yl]-5-methoxy-phenol] | 18.2 (≈ 57.9 µM) | > 50 | 50 (≈ 159 µM) | 50 (≈ 159 µM) | – | > 50 | 50 (≈ 159 µM) | –
COc1ccccc1-c1c(-c2ccc(OCC(=O)NN)cc2O)n[nH]c1C(F)(F)F [Sep-26, 2-[3-hydroxy-4-[4-(2-methoxyphenyl)-5-(trifluoromethyl)-1∼{H}-pyrazol-3-yl]phenoxy]acetohy drazide] | – | > 50 | > 50 | 25 (≈ 59.2 µM) | – | > 50 | > 50 | 194 (≈ 461 µM)
